This is an account of results in publication PMC4494766 (Monatshefte Fur Chemie, 2011).

In assay [1] the test system is human non-small lung cancer cell line A549. The assay can be described thus: MTT viability assay. It counts as cell-based. The conditions noted are these: 120 h. Background: Tetrazolium dyes change colour on reduction, which living cells bring about.
Assay [2] has as its system M. tuberculosis wild-type strain sp. 192 fully sensitive. The assay can be described thus: Tuberculostatic activity, test-tube successive dilution in Youmans' medium. The conditions noted are these: Mycobacterium tuberculosis. It counts as cell-based.
For assay [3], the system named is M. tuberculosis H37Rv strain. The assay is described as above. The conditions noted are these: Mycobacterium tuberculosis. It counts as cell-based.
For assay [4], the system named is Intracellularum. The assay can be described thus: Widened tuberculostatic tests. The class given is cell-based, Mycobacterium.
In assay [5] the test system is H37Rv. The assay can be described thus: Widened tuberculostatic tests. It counts as cell-based, Mycobacterium.
For assay [6], the system named is Kansasii. The assay can be described thus: Widened tuberculostatic tests. It counts as cell-based, Mycobacterium.
Assay [7] deals with Kirchberg. The assay can be described thus: Widened tuberculostatic tests. It counts as cell-based, Mycobacterium.
Assay [8] relates to Smegmatis. The assay can be described thus: Widened tuberculostatic tests. The class given is cell-based, Mycobacterium.
The test system of assay [9] is An5. The assay can be described thus: Widened tuberculostatic tests. The class given is cell-based, Mycobacterium.
Assay [10] relates to Scrofulaceum. The assay can be described thus: Widened tuberculostatic tests. It counts as cell-based, Mycobacterium.
Assay [11] concerns Phlei. The assay can be described thus: Widened tuberculostatic tests. The class given is cell-based, Mycobacterium.
The subject of assay [12] is Wells. The assay can be described thus: Widened tuberculostatic tests. The class given is cell-based, Mycobacterium.
The subject of assay [13] is Fortuitum. The assay can be described thus: Widened tuberculostatic tests. The class given is cell-based, Mycobacterium.
In assay [14] the test system is A549 and HCT116 cell lines. The assay can be described thus: MTT cytotoxicity, summary statements without cell line. It counts as cell-based. The following applies: Homo sapiens, read-out: IC 50 (ca., cell line not stated).

In brackets after ≈: the same amount, converted by molar mass.

Compound `N.N.[Cl][Pt][Cl]` [Cis-Pt, Cisplatin] registered an IC50 in assay [1] of 0.63 ± 0.018 µM.

As to `CSC(=NNC(=O)c1ccccc1Cl)SC` [Compound 2, Dimethyl 2-chlorobenzoylcarbonohydrazonodithioate], the MIC in assay [2] and in assay [3] was 25 µg/mL (≈ 91 µM) throughout.

As for `CSC(=NNC(=O)c1ccc(Cl)cc1)SC` [Compound 3, Dimethyl 4-chlorobenzoylcarbonohydrazonodithioate], the MIC in assay [4] came to 50 μg cm^−3; in assay [5] it was 12.5 μg cm^−3; in assay [6], 25 μg cm^−3; in assay [7] it was 25 μg cm^−3; in assay [8], 100 μg cm^−3; in assay [2], 12.5 µg/mL (≈ 45.5 µM). Moreover, the MIC in assay [9] was 12.5 μg cm^−3; in assay [10], 100 μg cm^−3; in [11], 100 μg cm^−3; in assay [12] it was 12.5 μg cm^−3; in assay [13], 100 μg cm^−3; in assay [3], 6.2 µg/mL (≈ 22.6 µM).

On to `CSC(=NNC(=O)c1ccc(Cl)cc1Cl)SC` [Compound 4, Dimethyl 2,4-dichlorobenzoylcarbonohydrazonodithioate], for which the MIC in assay [5] stood at 6.2 μg cm^−3; in assay [6], 25 μg cm^−3; in [2], 6.2 µg/mL (≈ 20 µM); in assay [9] it was 6.2 μg cm^−3; in [10], 25 μg cm^−3; in [12], 12.5 μg cm^−3. The compound also had an MIC in [3] of 6.2 µg/mL (≈ 20 µM).

Consider `CSC(=NNC(=O)c1ccc(Cl)c(Cl)c1)SC` [Compound 5, Dimethyl 3,4-dichlorobenzoylcarbonohydrazonodithioate], for which the MIC turned out to be 100 μg cm^−3 in assay [4]; 6.2 μg cm^−3 in assay [5]; 6.2 μg cm^−3 in assay [6]; 12.5 μg cm^−3 in assay [7]; 100 μg cm^−3 in assay [8]; 3.1 µg/mL (≈ 10 µM) in assay [2]. The MIC is 12.5 μg cm^−3 in [9]; 25 μg cm^−3 in assay [10]; 100 μg cm^−3 in assay [11]; 6.2 μg cm^−3 in assay [12]; 100 μg cm^−3 in [13]; 6.2 µg/mL (≈ 20 µM) in assay [3]. Besides, the IC50 in [14] was approximately 30 µM.

In the case of `CSC(=NNC(=O)c1ccccc1[N+](=O)[O-])SC` [Compound 6, Dimethyl 2-nitrobenzoylcarbonohydrazonodithioate], the results for the MIC in [2] and in [3] were 50 µg/mL (≈ 175 µM) and 25 µg/mL (≈ 87.6 µM), respectively.

In assay [2], `CSC(=NNC(=O)c1ccccc1O)SC` [Compound 8, Dimethyl 2-hydroxybenzoylcarbonohydrazonodithioate] displayed an MIC of 25 µg/mL (≈ 97.5 µM).

`CSC(=NNC(=O)c1cccc(O)c1)SC` [Compound 9, Dimethyl 3-hydroxybenzoylcarbonohydrazonodithioate]: the MIC in [4] came out at 25 μg cm^−3; in assay [5], 6.2 μg cm^−3; in assay [2], 6.2 µg/mL (≈ 24.2 µM); in assay [9], 6.2 μg cm^−3; in assay [10], 25 μg cm^−3; in assay [12], 6.2 μg cm^−3. The MIC in [13] stood at 25 μg cm^−3; in assay [3], 6.2 µg/mL (≈ 24.2 µM).

In the case of `CSC(=NNC(=O)c1ccc(O)cc1)SC` [Compound 10, Dimethyl 4-hydroxybenzoylcarbonohydrazonodithioate], the MIC in assay [4] turned out to be 100 μg cm^−3; in assay [5], 6.2 μg cm^−3; in assay [6], 25 μg cm^−3; in [7] it was 50 μg cm^−3; in [8], 100 μg cm^−3; in assay [2], 6.2 µg/mL (≈ 24.2 µM). For the same compound, the MIC in assay [9] amounted to 6.2 μg cm^−3; in assay [10], 50 μg cm^−3; in assay [11], 100 μg cm^−3; in [12], 12.5 μg cm^−3; in assay [13], 100 μg cm^−3; in assay [3], 3.1 µg/mL (≈ 12.1 µM). Further, the IC50 in assay [14] is approximately 100 µM.

For the compound `COc1ccc(C(=O)NN=C(SC)SC)cc1` [Compound 11, Dimethyl 4-methoxybenzoylcarbonohydrazonodithioate], the MIC in [2] and in [3] was 25 µg/mL (≈ 92.5 µM) each time.

For `COc1cc(C(=O)NN=C(SC)SC)cc(OC)c1OC` [Compound 12, Dimethyl 3,4,5-trimethoxybenzoylcarbonohydrazonodithioate], the MIC is 50 µg/mL (≈ 151 µM) in [2] and 25 µg/mL (≈ 75.7 µM) in assay [3].

Turning to `COc1ccc(CC(=O)NN=C(SC)SC)cc1OC` [Compound 13, Dimethyl 2-(3,4-dimethoxyphenyl)acetylcarbonohydrazonodithioate], the MIC in [2] came out at 50 µg/mL (≈ 159 µM); in [3], 25 µg/mL (≈ 79.5 µM).

Take `COc1cccc2c1C(=O)c1c(O)c3c(c(O)c1C2=O)C[C@@](O)(C(=O)CO)C[C@@H]3O[C@H]1C[C@H](N)[C@H](O)[C@H](C)O1` [Dox, doxotubicin]: the IC50 in [1] was 0.008 ± 0.0011 µM.
